Results on 2 substances are retold here after publication PMC5111122, “Peptides at the Interface: Self-Assembly of Amphiphilic Designer Peptides and Their Membrane Interaction Propensity” (Biomacromolecules, 2016).

Assay in data set [1]: not given
The source holds these as a separate data set.

Data set [2] in a line: Determination of the critical aggregation concentration (CAC), DPH fluorescence assay. The format is physicochemical. The settings on record: excitation 359 nm, emission 428 nm, peptide in double-distilled water cleared with NaOH, aged 1 week, intersection of two fitted straight lines. The method, then:
(§1) Lyophilized peptides were dissolved in double-distilled water. NaOH (1 or 0.1 M) was added stepwise until the samples appeared as clear, colorless solutions. Stock solutions (50 mM) were then diluted with double-distilled water to obtain the desired concentrations. All samples were aged for 1 week under an argon atmosphere prior to fluorescence, SAXS, TEM, and attenuated total reflection Fourier transform infrared (ATR-FTIR) spectroscopy measurements.
A 4 μL portion of DPH in methanol (10 μM) was added to 50 μL of peptide solution of varying concentrations. All fluorescence spectra were recorded under identical conditions on a CLARIOstar microplate reader (BMG LABTECH, Ortenberg, Germany) with an excitation wavelength of 359 nm. Fluorescence emission was recorded at 428 nm. Samples were background corrected and normalized to the highest intensity readout. DPH is almost nonfluorescent in aqueous solutions and in the presence of randomly oriented peptide monomers. As soon as oriented structures are formed, a sharp increase in fluorescence intensity is observed. The CAC of the peptide is defined as the intersection point of two straight lines, fitting the low intensity region and the region with linearly increasing intensity.[18]

Data set [3] can be described thus: TEM of peptide assemblies (negative staining, cryo). The format is physicochemical. The method, then:
as §1
Solutions of A6YD and V4WD2 (11 mM) were incubated for 1 week prior to TEM measurements. Samples were adsorbed onto a glow-discharged carbon-coated copper grid and allowed to settle for 1 min. Excess fluid was carefully removed with filter paper and immediately replaced by 5 μL of a 2% (w/v) uranyl acetate staining solution, which was centrifuged for 6 min at 10000 rpm prior to usage in order to precipitate potentially present aggregates. The uranyl acetate solution was allowed to settle for 30 s, blotted, and replaced by another 5 μL of fresh solution. After 30 s of incubation, the staining solution was removed and the sample was air-dried. Visualization of the samples was achieved by using a Fei Tecnai G^2 20 transmission electron microscope (Eindhoven, The Netherlands) operating at an acceleration voltage of 120 kV. Digital images were made using a Gatan US1000 CCD camera at 2K × 2K resolution.

Data set [4] in a line: Differential scanning calorimetry (DSC) on DPPC MLVs. The conditions noted are these: as evidenced by DSC, EPR, and SAXS. The method, then: DPPC was dissolved in chloroform/methanol (2:1 v/v), mixed, and organic solvents were evaporated under a gentle stream of nitrogen, followed by drying under a vacuum overnight in order to completely remove residual organic solvents. The dry lipid-film was hydrated either by adding double-distilled water (reference) or by adding aqueous solutions of the peptides to finally obtain four different molar ratios: 50:1, 25:1, 10:1, and 5:1 DPPC/peptide (mol/mol). These ratios correspond to peptide concentrations of 1.1, 2.2, 5.5, and 11 mM, respectively. The DPPC concentration was 55 mM. The samples were incubated above the lipid’s phase transition temperature at 50 °C for 2 h, intermitted by vigorous vortexing every 15 min.
DPPC MLVs in the presence and absence of peptides were prepared as described above, incubated for 24 h at room temperature (gently rotating), and diluted with double-distilled water to 2.75 mM DPPC prior to measurements to fit the optimal concentration regime for DSC. Measurements were performed on a Microcal VP-DSC differential scanning calorimeter (Northampton, MA, USA). Scans were recorded at a constant scan rate of 0.5 °C/min from 10 to 80 °C. […] The sharpness of the transition was described by the full width at half-maximum (ΔT1/2), and calorimetric enthalpies (ΔH) were calculated by integrating the peak areas.
On the technique in general: Differential scanning calorimetry records heat flow against a reference as temperature is scanned.

Ac-AAAAAAYD-OH: the hard sphere radius (Rs) came to 2.6 nm. In data set [1], the peptide fiber diameter in presence of LDL worked out at 10 nm.
On to Ac-AAAAAAYK-NH2 [A6YK], for which the “∼CAC (critical aggregation concentration)” value in data set [2] was approximately 1 mM. The “diameter of supramolecular cylinders (TEM, both techniques)” value in data set [3] (above the CAC, Fig. S11) is listed as 4- 12 nm. In addition, in data set [3] (cryogenic conditions), the “fiber diameter, cryo-TEM” value is recorded as 8–12 nm. For the same substance, in data set [3] (negative staining with 2% uranyl acetate, peptide aged 1 week), the “nanofiber diameter, negative-staining TEM” value was 4–10 nm. In addition, in data set [4], the “interaction with DPPC MLVs” value was “no interaction”.
